Source: US20210162050A1, “TOPICAL FORMULATIONS BASED ON IONIC SPECIES FOR SKIN TREATMENT” (The Regents of the University of California, priority 2016, published 2021)

Columns and labels:
[1] = Octanol-water partitioning coefficients of cation paired hyaluronic acid (HA); format: physicochemical; settings: cation paired with HA
Method: 5 mL ddH2O may be mixed overnight at room temperature with 5 mL octanol. A complex containing a macromolecular anion complexed with sodium ions or with cations with alkyl chains is then added to the mixture and again allowed to mix overnight at room temperature in the dark. After overnight incubation, the solution is centrifuged to separate the octanol layer and water layer. The concentration of the macromolecular anion present in each layer is quantified by UV-Vis spectroscopy, or fluorescence spectroscopy, using, for example, a SAFIRE, XFLUOR4, V4.50 microplate reader (Tecan Group Ltd, Morrisville, N.Y.). For detection of siRNA, the fluorescence detection may be performed at an excitation of 485 nm and an emission of 520 nm, and the method may be validated for linearity, accuracy, and precision. Log Po/w may be calculated as the logarithm of the ratio of fluorescence in the octanol layer compared to the water layer.
Cation paired HA was prepared according to methods described in Example 1.

HEKa cells = experiment: Biocompatibility in cell culture, MTT Cell Proliferation Assay; format: cell-based, human; settings: equal concentrations, 4 hours; differences not statistically significant (p >0.05)
Method: All cell culture materials were acquired from Life Technologies (Grand Island, N.Y.). Human adult epidermal keratinocytes were cultured in EpiLife Medium supplemented with Human Keratinocyte Growth Supplement, 25 U/mL penicillin, 25 μg/mL streptomycin, and 50 μg/mL neomycin. Cultures were grown at 37° C. with 5% CO2.
Cells were seeded in a 96-well microplate (Corning Inc., Corning, N.Y.) and were allowed to attach and proliferate. Once cells reached ˜80% confluency, the media was removed and FAM-siRNA, robed-FAM-siRNA, or benzyl dimethyl alkyl ammonium chloride salts in media was added. Media alone was used as a control. Cells were incubated with test solution for 4 hours at 37° C. and 5% CO2. After incubation, test solutions were removed, cells were washed with HBSS, and fresh media was added to each well. Cells were allowed to proliferate overnight before being assessed for viability using the MTT Cell Proliferation Assay (ATCC, Manassas, Va.). Viability was determined according to the manufacturer's recommended protocol using a SAFIRE, XFLUOR4, V4.50 microplate reader (Tecan Group Ltd, Morrisville, N.Y.).

[2] = chloride salt; Hansch et al. 1995; cited from earlier work

LogPo/w [1] | SMILES | toxicity of free salts versus robed with siRNAs (HEKa cells) | Log Po/w, Chloride [2]
−3.32 | C[N+](C)(C)CCO |  | 
2.14 | CCCCCCCCCCCCCC[N+](C)(C)C.[Br-] |  | 
 | CCCCCCCC[N+](C)(C)Cc1ccccc1 [BDOA chloride, benzyl dimethyl octyl ammonium] | more toxic as free salts | 
 | CCCCCCCCCCCCCCCCCC[N+](C)(C)Cc1ccccc1 [BDSA chloride, benzyl dimethyl stearyl ammonium] | more toxic as free salts | 3.23^3
 | CCCCCCCCCCCCCC[N+](C)(C)Cc1ccccc1 [BDTA chloride, benzyl dimethyl tetradecyl ammonium] | more toxic as free salts | 1.81^2
